{"source": "paper PMC5580926", "about": "(Antiviral therapy, 2016)", "data": [{"test_system": "HCVcc-Luc (2a)", "assay": "microbe, parasite or virus in culture", "format": "cell-based, HCV", "conditions": "Hepatitis C virus, read-out: EC50, HCVcc-Luc (2a)", "units": {"EC50": "nM"}, "values": [{"smiles": "C[C@@]1(O)[C@H](O)[C@@H](CO)O[C@H]1n1ccc(N)nc1=O", "note": "[2′-C-methylcytidine]", "EC50": "1400 ± 400"}, {"smiles": "COC(=O)N[C@H](C(=O)N1CCC[C@H]1c1nc(-c2ccc(-c3ccc(-c4c[nH]c([C@@H]5CCCN5C(=O)[C@@H](NC(=O)OC)C(C)C)n4)cc3)cc2)c[nH]1)C(C)C", "note": "[Daclatasvir, daclatasvir]", "EC50": "0.04 ± 0.02"}, {"smiles": "CC(C)OC(=O)[C@H](C)N[P@](=O)(OC[C@H]1O[C@@H](n2ccc(=O)[nH]c2=O)[C@](C)(F)[C@@H]1O)Oc1ccccc1", "note": "[Sofosbuvir, sofosbuvir]", "EC50": "60 ± 2"}, {"smiles": "CCC[C@H](NC(=O)[C@@H]1[C@H]2CCC[C@H]2CN1C(=O)[C@@H](NC(=O)[C@@H](NC(=O)c1cnccn1)C1CCCCC1)C(C)(C)C)C(=O)C(=O)NC1CC1", "note": "[Telaprevir, telaprevir]", "EC50": "200 ± 40"}]}, {"test_system": "HCVcc-Luc (2a)", "assay": "microbe, parasite or virus in culture", "format": "cell-based, HCV", "conditions": "read-out: EC50, HCVcc-Luc (2a); single agent; mean of ≥3 independent tests ±SEM", "units": {"EC50": "nM"}, "values": [{"smiles": "CN1CCN([C@@H](c2ccccc2)c2ccc(Cl)cc2)CC1", "note": "[(S)-CCZ, (S)-chlorcyclizine]", "EC50": "24 ± 9"}]}, {"test_system": "not listed separately", "assay": "in vitro", "format": "cell-based", "conditions": "human", "units": {"CC50": "nM"}, "values": [{"smiles": "C[C@@]1(O)[C@H](O)[C@@H](CO)O[C@H]1n1ccc(N)nc1=O", "note": "[2′-C-methylcytidine]", "CC50": "> 100000"}, {"smiles": "CC(C)(C)NC(=O)N[C@H](C(=O)N1C[C@H]2[C@@H]([C@H]1C(=O)NC(CC1CCC1)C(=O)C(N)=O)C2(C)C)C(C)(C)C", "note": "(some centres unmarked) [Boceprevir, boceprevir]", "CC50": "> 100000"}, {"smiles": "COC(=O)N[C@H](C(=O)N1CCC[C@H]1c1nc(-c2ccc(-c3ccc(-c4c[nH]c([C@@H]5CCCN5C(=O)[C@@H](NC(=O)OC)C(C)C)n4)cc3)cc2)c[nH]1)C(C)C", "note": "[Daclatasvir, daclatasvir]", "CC50": "45000 ± 1000"}, {"smiles": "CC(C)OC(=O)[C@H](C)N[P@](=O)(OC[C@H]1O[C@@H](n2ccc(=O)[nH]c2=O)[C@](C)(F)[C@@H]1O)Oc1ccccc1", "note": "[Sofosbuvir, sofosbuvir]", "CC50": "> 100000"}, {"smiles": "CCC[C@H](NC(=O)[C@@H]1[C@H]2CCC[C@H]2CN1C(=O)[C@@H](NC(=O)[C@@H](NC(=O)c1cnccn1)C1CCCCC1)C(C)(C)C)C(=O)C(=O)NC1CC1", "note": "[Telaprevir, telaprevir]", "CC50": "> 100000"}]}, {"test_system": "Con1b replicon", "assay": "Con1b replicon efficacy assay", "format": "cell-based, HCV", "conditions": "Hepatitis C virus, read-out: EC50, Con1b replicon", "units": {"EC50": "nM"}, "values": [{"smiles": "C[C@@]1(O)[C@H](O)[C@@H](CO)O[C@H]1n1ccc(N)nc1=O", "note": "[2′-C-methylcytidine]", "EC50": "1610 ± 70"}, {"smiles": "CC(C)(C)NC(=O)N[C@H](C(=O)N1C[C@H]2[C@@H]([C@H]1C(=O)NC(CC1CCC1)C(=O)C(N)=O)C2(C)C)C(C)(C)C", "note": "(some centres unmarked) [Boceprevir, boceprevir]", "EC50": "620 ± 10"}, {"smiles": "COC(=O)N[C@H](C(=O)N1CCC[C@H]1c1nc(-c2ccc(-c3ccc(-c4c[nH]c([C@@H]5CCCN5C(=O)[C@@H](NC(=O)OC)C(C)C)n4)cc3)cc2)c[nH]1)C(C)C", "note": "[Daclatasvir, daclatasvir]", "EC50": "0.04 ± 0.02"}, {"smiles": "CC(C)OC(=O)[C@H](C)N[P@](=O)(OC[C@H]1O[C@@H](n2ccc(=O)[nH]c2=O)[C@](C)(F)[C@@H]1O)Oc1ccccc1", "note": "[Sofosbuvir, sofosbuvir]", "EC50": "400 ± 100"}, {"smiles": "CCC[C@H](NC(=O)[C@@H]1[C@H]2CCC[C@H]2CN1C(=O)[C@@H](NC(=O)[C@@H](NC(=O)c1cnccn1)C1CCCCC1)C(C)(C)C)C(=O)C(=O)NC1CC1", "note": "[Telaprevir, telaprevir]", "EC50": "550 ± 50"}]}, {"test_system": "not listed separately", "assay": "ATPlite cytotoxicity assay under Con1b replicon efficacy assay conditions", "format": "cell-based", "conditions": "human", "units": {"CC50": "nM"}, "values": [{"smiles": "CC(C)(C)NC(=O)N[C@H](C(=O)N1C[C@H]2[C@@H]([C@H]1C(=O)NC(CC1CCC1)C(=O)C(N)=O)C2(C)C)C(C)(C)C", "note": "(some centres unmarked) [Boceprevir, boceprevir]", "CC50": "> 100000"}, {"smiles": "CC(C)OC(=O)[C@H](C)N[P@](=O)(OC[C@H]1O[C@@H](n2ccc(=O)[nH]c2=O)[C@](C)(F)[C@@H]1O)Oc1ccccc1", "note": "[Sofosbuvir, sofosbuvir]", "CC50": "> 100000"}]}, {"test_system": "not listed separately", "assay": "ATPlite cytotoxicity assay under Con1b replicon efficacy assay conditions", "format": "cell-based", "conditions": "human, Con1b replicon cell line", "units": {"CC50": "nM"}, "values": [{"smiles": "C[C@@]1(O)[C@H](O)[C@@H](CO)O[C@H]1n1ccc(N)nc1=O", "note": "[2′-C-methylcytidine]", "CC50": "> 100000"}, {"smiles": "COC(=O)N[C@H](C(=O)N1CCC[C@H]1c1nc(-c2ccc(-c3ccc(-c4c[nH]c([C@@H]5CCCN5C(=O)[C@@H](NC(=O)OC)C(C)C)n4)cc3)cc2)c[nH]1)C(C)C", "note": "[Daclatasvir, daclatasvir]", "CC50": "22000 ± 1000"}, {"smiles": "CCC[C@H](NC(=O)[C@@H]1[C@H]2CCC[C@H]2CN1C(=O)[C@@H](NC(=O)[C@@H](NC(=O)c1cnccn1)C1CCCCC1)C(C)(C)C)C(=O)C(=O)NC1CC1", "note": "[Telaprevir, telaprevir]", "CC50": "97800 ± 900"}]}]}
